According to patent publication US20080287374A1, “BREAST CANCER-RESISTANT PROTEIN INHIBITOR” (KABUSHIKI KAISHA YAKULT HONSHA, priority 2003, published 2008):
Converted amounts (≈) assume the structure as drawn.

Legend:
A549/SN-38-4 cell line [1] = assay: Effect of flavonoid in overcoming anticancer drug (SN-38) resistance of A549/SN-38 cell line; format: cell-based, human; conditions: concentration of flavonoid for 50% reduction of relative resistance value to SN-38, A549/SN-38-4, 48 hours; for EC50: Homo sapiens
Description: The A549 cell line or the A549/SN-38-4 cell line was suspended in 10% FBS/Ham's F-12, and the resultant suspension was inoculated into a 96-well microplate, followed by culturing at 5% CO2 and 37° C. overnight (2×10^3 cells/50 μL/well). Thereafter, a solution of a flavonoid and SN-38 in 10% FBS/Ham's F-12 (25 μL) was added to each of the wells, followed by culturing at 5% CO2 and 37° C. for 48 hours. After completion of culturing, the number of viable cells was counted by use of TetraColor ONE according to the attached instruction manual.

MES-SA/Dx5 cell line = assay: Effect of flavonoid on multidrug (paclitaxel) resistance of MES-SA/Dx5 cell line; format: cell-based, human; conditions: concentration of flavonoid for 50% reduction of relative resistance value to paclitaxel, MES-SA/Dx5 (P-glycoprotein overexpression), 48 hours; for EC50: Homo sapiens, read-out: Resistance overcoming effect EC50
Description: Human uterine cancer MES-SA cell line or MES-SA/Dx5 cell line which had acquired multidrug resistance through overexpression of P-glycoprotein (Cancer Res. 45, 4091-4096 (1985)) was suspended in 10% FBS/DMEM, and the resultant suspension was inoculated into a 96-well microplate, followed by culturing at 5% CO2 and 37° C. overnight (3×10^3 cells/50 μL/well). Thereafter, a solution of a flavonoid and paclitaxel in 10% FBS/DMEM (25 μL) was added to each of the wells, followed by culturing at 5% CO2 and 37° C. for 48 hours. After completion of culturing, the number of viable cells was counted by use of TetraColor ONE according to the attached instruction manual.

P388/BCRP cell line = assay: Effect of flavonoid in overcoming anticancer drug resistance in vivo (survival of tumor-implanted mice); parameters: species or system mouse; conditions: compound 100 mg/kg/day + CPT-11 20 mg/kg/day, intraperitoneally once a day, days 1 to 10; CDF1 mice
Description: Groups of six-week-old female CDF1 mice, each group consisting of 5 mice, were employed. The P388 cell line or the P388/BCRP cell line (1×10^6 cells) was implanted into the peritoneal cavity of each of the mice. […] Merely the solvent was administered to mice in the control group. In order to evaluate the antitumor effect of the flavonoid, survival rate T/C (%) was calculated from the survival days of the tumor-implanted mice by use of the following formula.
Survival rate T/C (%)=(the mean survival days of mice in the treated flavonoid group)÷(the mean survival days of mice in the control group)×100

A549/SN-38-4 cell line [2] = assay: Amount of anticancer drug accumulated in A549/SN-38 cell line; format: cell-based, human; conditions: both the A549 cell line and the A549/SN-38-4 cell line; SN-38 300 ng/mL, 60 minutes
Description: The A549 cell line or the A549/SN-38-4 cell line (4×10^6 cells/mL) was suspended in 10% FBS/RPMI1640 (1 mL), and an SN-38 DMSO solution (1 μL, final concentration: 300 ng/mL) was added to the resultant suspension, followed by incubation at 37° C. for 60 minutes. Thereafter, centrifugation was performed (2° C., 1,400×g, 1 min), and the resultant supernatant was removed. Ice-cooled PBS was added to the thus-precipitated cells, and the cells were resuspended therein, followed by centrifugation (2° C., 1,400×g, 1 min) for washing of the cells. This washing procedure was performed again, followed by addition of PBS (375 μL) and sonication of the cells. To the resultant destructed cells, methanol (375 μL) and 10% zinc sulfate solution (15 μL) were added, and the resultant mixture was stirred, followed by centrifugation (2° C., 12,500×g, 5 min) and collection of the supernatant. The thus-collected supernatant was dispensed in a white 96-well microplate for fluorescence intensity measurement (200 μL/well), and then the amounts of SN-38 and an SN-38-glucuronide contained in the supernatant were measured by use of a microplate fluorometer [SPECTRA max GEMINI XS (trade name), product of Molecular Devices] […]

A549/SN-38-4 cell line [3] = assay: Anticancer drug sensitivity test, A549/SN-38-4; format: cell-based, human; conditions: stated for the A549/SN-38 cell lines; FIG. 1 shows A549/SN-38-4
Description: Human non-small cell lung cancer A549 cell line was subcultured at 5% CO2 and 37° C. by use of a Ham's F-12 medium containing 10% FBS, 100 U/mL of penicillin, and 100 μg/mL of streptomycin (10% FBS/Ham's F-12). SN-38-resistant A549 cell lines were selected by subculturing the A549 cell line in a medium for two months while the concentration of SN-38 contained in the medium was increased in a stepwise manner (4 to 10 ng/mL). Subsequently, the resultant SN-38-resistant A549 cell lines were subjected to cloning by means of limiting dilution, to thereby establish six cloned SN-38-resistant A549 cell lines (A549/SN-38-1 to 6).
Thereafter, a solution of an anticancer drug in 10% FBS/Ham's F-12 (50 μL) was added to each of the wells, followed by culturing at 5% CO2 and 37° C. for 48 hours. After completion of culturing, the number of viable cells was counted by use of a viable cell counting reagent [TetraColor ONE (trade name), product of Seikagaku Corporation] according to the attached instruction manual. […] “Relative resistance value” is obtained by dividing the IC50 for an A549/SN-38 cell line by the IC50 for the A549 cell line. The greater the relative resistance value, the higher the level of acquired resistance.

| Compound | EC50 (A549/SN-38-4 cell line [1]) [µg/mL] | EC50 (MES-SA/Dx5 cell line) [µg/mL] | further results |
| --- | --- | --- | --- |
| COc1ccc2c(=O)cc(-c3ccc(OC)c(OC)c3)oc2c1 [Compound 1-14, 3′,4′,7-Trimethoxyflavone] | 0.0078 (≈ 0.025 µM) | > 1 | Survival days Mean ± S.D. (P388/BCRP cell line): 18.4 ± 4.5 days; Survival rate T/C (P388/BCRP cell line): 153% |
| COc1cc2oc(-c3ccccc3)cc(=O)c2cc1OC [Compound 1-15, 6,7-Dimethoxyflavone] | 0.16 (≈ 0.567 µM) | > 1 | Survival days Mean ± S.D. (P388/BCRP cell line): 18.2 ± 3.9 days; Survival rate T/C (P388/BCRP cell line): 152% |
| COc1ccc(/C=C/C(=O)c2ccc(O)cc2O)cc1OC [Compound 3-5, 2′,4′-Dihydroxy-3,4-dimethoxychalcone] | 0.04 (≈ 0.133 µM) | > 1 | Survival days Mean ± S.D. (P388/BCRP cell line): 18.4 ± 0.5 days; Survival rate T/C (P388/BCRP cell line): 153% |
| COc1cc(/C=C/C(=O)c2cc(Br)cc(Cl)c2O)cc(OC)c1OC [Compound 3-7, 5′-Bromo-3′-chloro-2′-hydroxy-3,4,5-trimethoxychalcone] | 0.65 (≈ 1.52 µM) | > 1 |  |
| COc1ccc(/C=C/C(=O)c2c(O)cc(OC)cc2O)cc1 [Compound 3-8, 2′,6′-Dihydroxy-4,4′-dimethoxychalcone] | 0.79 (≈ 2.63 µM) | > 1 |  |
| COc1ccc(O)c(C(=O)/C=C/c2cccc(OC)c2OC)c1 [Compound 3-9, 2′-Hydroxy-2,3,5′-trimethoxychalcone] | 0.94 (≈ 2.99 µM) | > 1 |  |
| COc1cc(/C=C/C(=O)c2cc(Cl)cc(Br)c2O)cc(OC)c1OC [Compound 3-10, 3′-Bromo-5′-Chloro-2′-hydroxy-3,4,5-trimethoxychalcone] | 0.97 (≈ 2.27 µM) | > 1 |  |
| COc1ccc(-c2coc3cc(O)cc(O)c3c2=O)cc1 [Compound 4-1, 5,7-Dihydroxy-4′-methoxyisoflavone] | 0.33 (≈ 1.16 µM) | > 1 |  |
| COc1ccc(-c2coc3cc(OC4O[C@H](CO)[C@@H](O)[C@H](O)[C@H]4O)cc(O)c3c2=O)cc1 (stereo partly drawn) [Compound 4-2, 5-Hydroxy-4′-methoxyisoflavone-7-glucoside] |  |  | Resistance overcoming effect EC50 (A549/SN-38-4 cell line [1]): 0.84 µg/mL; Resistance overcoming effect EC50 (MES-SA/Dx5 cell line): >1.0 µg/mL |
| CCc1c2c(nc3ccc(O[C@@H]4O[C@H](C(=O)O)[C@@H](O)[C@H](O)[C@H]4O)cc13)-c1cc3c(c(=O)n1C2)COC(=O)[C@]3(O)CC [SN-38-glucuronide] |  |  | SN-38-glucuronide detected in cells (A549/SN-38-4 cell line [2]): virtually no SN-38-glucuronide was detected |
| CCc1c2c(nc3ccc(O)cc13)-c1cc3c(c(=O)n1C2)COC(=O)[C@]3(O)CC [SN-38] |  |  | Resistance of the A549/SN-38 cell lines to the drug (in words) (A549/SN-38-4 cell line [3]): particularly strong resistance |
| O=C1c2c(O)ccc(O)c2C(=O)c2c(NCCNCCO)ccc(NCCNCCO)c21 [mitoxantrone] |  |  | Resistance of the A549/SN-38 cell lines to the drug (in words) (A549/SN-38-4 cell line [3]): particularly strong resistance |
